Source: US20120115912A1, “RXR AGONIST COMPOUNDS AND METHODS” (priority 2009, published 2012)
Like-named read-outs stand apart in the source and are kept apart here.

How the values were obtained:
microglia = assay: RXR mediated intracellular Aβ degradation with PPARγ or LXR inhibitors, microglia; type: cell-based; details: inhibitor pretreatment 1.5 hrs, Bexarotene 24 hours, 18 hours 2 ug/mL soluble Aβ
Text: (§1) FIG. 14 illustrates graphs showing RXR mediated intracellular Aβ degradation is prevented by inhibiting PPARγ or LXR.
(§2) To determine which heterodimer partners are involved in RXR activation driven Aβ intracellular degradation, we inhibited PPARγ and LXR by competitive inhibitors, TO and 22-s-Hydroxycholesterol, respectively. Aβ degradation mediated by either microglia (A) or astrocytes (B) is inhibited with either inhibitor to PPAR or LXR. Additionally, a co-treatment with both inhibitors reduces Aβ degradation further (FIG. 14).

astrocytes = assay: RXR mediated intracellular Aβ degradation with PPARγ or LXR inhibitors, astrocytes; type: cell-based; details: inhibitor pretreatment 1.5 hrs, Bexarotene 24 hours, 18 hours 2 ug/mL soluble Aβ
Text: as §1, §2

primary microglia = assay: Proteolytic degradation of Aβ by primary microglia; type: cell-based, murine; details: for intracellular Aβ levels: 24 hours drug then 18 hours with 2 μg/mL soluble Aβ
Text: FIG. 5 illustrates graphs showing RXR agonists stimulate Aβ degradation.
Given the ability of RXR activation to drive LXR target gene expression, we predicted that agonist treatment should promote the proteolytic degradation of Aβ by microglia. […] Aβ uptake was unaffected by either drug treatment.

ApoE = ApoE lipidation status in astrocyte conditioned media (native gel electrophoresis, Western); type: cell-based; details: confluent primary murine astrocytes, increasing doses, 48 hours
Text: FIG. 4 illustrates an immunoassay showing ApoE lipidation status is increased after RXR agonist treatment. […] Conditioned media was subjected to native gel electrophoresis followed by Western analysis for ApoE.
Astrocyte conditioned media was collected and assessed by native gel electrophoresis. […]. (FIG. 4).

primary astrocytes = assay: Proteolytic degradation of Aβ by primary astrocytes; type: cell-based, murine
Text: FIG. 12 illustrates a graph showing RXR agonist stimulate Aβ degradation in astrocytes.
As shown above, astrocytes can drive the expression of LXR target genes after RXR activation, we predicted that agonist treatment should also promote the intracellular degradation of Aβ by astrocytes. […]. Aβ uptake was not affected by drug treatments (data not shown).

ApoE knock out microglia = assay: Intracellular Aβ degradation in ApoE knock out microglia; type: cell-based, murine
[1] = system: ApoE knock out astrocytes; assay: Intracellular Aβ degradation in ApoE knock out astrocytes; type: cell-based, murine
[2] = system: LXR target genes, ABCA1 and ABCG1; details: murine model of mixed dyslipidemis; cited from earlier work
[3] = humans, extended periods of use; cited from earlier work
AD animal model = assay: Contextual fear conditioning in AD animal model; details: 6 month old AD model mice, 100 mg/kg/day oral gavage, 7 days
Procedure: Wildtype littermates were used as a control and were orally gavaged with water for 7 days (n=5). Following treatment, animals underwent contextual fear conditioning. The number of times the animals froze over a two minute period was assessed after training.

CD36 = assay: Expression of PPARγ target gene CD36 in primary astrocytes (qRT-PCR); details: confluent primary murine astrocytes, 10 nM, time course
Text: Cell lysates were subjected to quantitative RT-PCR. GAPDH served as a control.

[4] = system: LXR target genes (ABCA1, ABCG1, ApoE); assay: RXR activation drives LXR target gene expression in primary astrocytes (Western analysis); details: primary murine astrocytes, increasing doses, 24 hours
Text: Cell lysates were subjected to Western analysis for ABCA1, ABCG1 and ApoE. Actin served as a load control.

[5] = system: LXR target genes (ABCA1, ABCG1, ApoE); details: primary murine microglia, increasing doses, 24 hours
Text: Cell lysates were subjected to Western analysis for ABCA1, ABCG1, ApoE, and GAPDH as a loading control.

[6] = therapeutic doses, FDA alert issued on May 21, 2007; cited from earlier work

SMILES: CC(C)CC[C@H](O)[C@@H](C)[C@H]1CC[C@H]2[C@@H]3CC=C4C[C@@H](O)CC[C@]4(C)[C@H]3CC[C@]12C [22-s-Hydroxycholesterol]
- Bexarotene-driven Aβ degradation in presence of inhibitor (microglia): inhibited
- Bexarotene-driven Aβ degradation in presence of inhibitor (astrocytes): inhibited

SMILES: CC1=C(/C=C/C(C)=C\C=C\C(C)=C\C(=O)O)C(C)(C)CCC1 [9cisRA]
- Aβ uptake (primary microglia): unaffected
- intracellular Aβ levels (primary microglia): dose-dependent reduction

SMILES: C=C(c1ccc(C(=O)O)cc1)c1cc2c(cc1C)C(C)(C)CCC2(C)C [Bexarotene]
- lipidation status of ApoE (ApoE): increases the lipidation status of ApoE
- Aβ uptake (primary microglia): unaffected
- intracellular Aβ levels (primary microglia): dose-dependent reduction
- intracellular Aβ levels (primary astrocytes; 24 hours drug then 18 hours with 2 ug/mL soluble Aβ): dose dependent reduction
- Aβ uptake (primary astrocytes; data not shown): not affected
- intracellular Aβ degradation (ApoE knock out microglia; with exogenous 1 μg/mL ApoE): the effect of intracellular Aβ degradation returns
- intracellular Aβ degradation (ApoE knock out microglia; without ApoE): no effect
- intracellular Aβ degradation ([1]; with exogenous 1 μg/mL ApoE): the effect of intracellular Aβ degradation returns
- intracellular Aβ degradation ([1]; without ApoE): no effect
- expression of the LXR target genes, ABCA1 and ABCG1 [2]: induce the expression of the LXR target genes, ABCA1 and ABCG1
- clinical safety profile [3]: good safety profile
- contextual fear conditioning behavior (AD animal model): significantly improves behavior
- CD36 expression by qRT-PCR (CD36): drives CD36, a PPARγ regulated gene, expression
- expression of ABCA1, ABCG1, and ApoE [4]: drives the expression of ABCA1, ABCG1 and ApoE
- expression of ABCA1, ABCG1, and ApoE [5]: drives the expression of ABCA1, ABCG1, and ApoE

SMILES: CN(CCOc1ccc(CC2SC(=O)NC2=O)cc1)c1ccccn1 (centres unmarked) [rosiglitazone, 5-[4-[2-(N-methyl-N-(2-pyridyl)amino]ethoxy]benzyl]thiazolidine-2,4-dione]
- risk of heart attack [6]: significantly increased risk of heart attack
